Literature values as cited in US20180327354A1, “Unnatural Analogues of Calcitriol and Uses Thereof” (Vidasym, Inc., priority 2009, published 2018).
Like-named read-outs stand apart in the source and are kept apart here.

Key:
[1] = clinical studies, Martin et al., 2001; cited from earlier work
[2] = system: uremic rats; settings: cited from earlier work
[3] = Slatopolsky et al., 1998, converted from ng/rat

Structure (SMILES): C[C@H](/C=C/[C@H](C)C(C)(C)O)[C@H]1CC[C@H]2/C(=C/C=C3C[C@@H](O)C[C@H](O)C3)CCC[C@]12C [paricalcitol]
- fold less potent in raising serum calcium than calcitriol [1]: 10 fold
- fold less potent in suppressing PTH than calcitriol [1]: about 3 fold
- dose at which compound raises serum Ca ([2]; Noonan et al., 2008): 0.083 µg/kg
- dose at which compound starts to suppress serum PTH ([2]; Noonan et al., 2008): 0.083 µg/kg
- dose at which compound raises serum Ca [2, 3]: ~0.0625 µg/kg
- dose at which compound starts to suppress serum PTH [2, 3]: ~0.02 µg/kg
- dose at which compound raises serum Ca ([2]; Slatopolsky et al., 1998): 25 ng/rat
- dose at which compound starts to suppress serum PTH ([2]; Slatopolsky et al., 1998): 8 ng/rat
